# Reference: patent publication US10668049B2, “Methods of treating cognitive decline with transforming growth factor beta inhibitors” (The Regents of the University of California, priority 2008, dated 2020)
# Key:
# [1] = system: Smad2; experiment: Smad2-P Western blot of cortical lysates after in vivo albumin treatment; parameters: species or system rat; conditions: animals exposed for 48 hours, compared to sham-operated controls
# Experimental: All experimental procedures were approved by the ethical committees dealing with experiments on animals at Charité University Medicine, Berlin and Ben-Gurion University of the Negev, Beer-Sheva. The in vivo experiments were performed as previously described (ivens et al., 2007; Seiffert et al., 2004). Adult male Wistar rats were treated with artificial cerebrospinal fluid (aCSF, composition in mM: 129 NaCl, 21 NaHCO3, 1.25 NaH2PO4, 1.8 MgSO4, 1.6 CaCl2, 3 KCl, 10 glucose) supplemented with deoxycholic acid (DOC, 2 mM, Sigma-Aldrich, Steinheim, Germany), bovine serum albumin (BSA, 0.1 mM. Merck, Darmstadt, Germany) corresponding to 25% of serum albumin concentration, or with TGF-β1 (10 ng/ml, Peprotech, Rocky Hill, N.J.). Sham-operated animals (perfused with aCSF) served as controls. […] Animals were sacrificed 7/8, 24, or 48 hours following treatment. […]
# To determine whether albumin binds to TGF-β receptors, co-immunoprecipitation using antibodies against albumin or TGF-βRII was performed on cortical lysate samples treated with albumin. An expected hand corresponding to TGF-βRII was detected in samples immunoprecipitated with the TGF-βRII antibody. More importantly, this band was also detected in samples pre-incubated with albumin when immunoprecipitated with the albumin antibody and probed for TGF-βRII (FIG. 2a). […]
# [2] = system: brain slices; experiment: Field potentials during train stimulation in brain slices exposed to albumin in sACSF; type: cell-based, rat; conditions: for field potential duration (at ⅓ maximal amplitude), 1st stimulus / field potential duration (at ⅓ maximal amplitude), 5th stimulus: treated
# Experimental: For electrophysiological experiments, rats were deeply anesthetized with isoflurane and then decapitated. Brains were quickly removed, and transverse hippocampal-cortical slices ([…] thick) were prepared using a vibratome (Campden Instruments, Loughborough, UK). Slices were maintained in a humidified, carbogenated (5% CO2 and 95% O2) gas atmosphere at 36±1° C. and perfused with ACSF in a standard interface chamber (Seiffert et al., 2004; Ivens et al., 2007). To mimic the altered ionic environment during BBB disruption, recordings were acquired in a serum-adapted electrolyte solution (sACSF; see Seiffert et al. 2004). sACSF was similar in composition to the ACSF except for different concentrations of MgSO4 (0.8 mM), CaCl2 (1.3 mM), KCl (5.7 mM) and glutamine (1 mM). “Treated” slices were incubated with sACSF containing 0.1 mM bovine serum albumin for 2 h before transfer to the perfusion chamber.
# Electrophysiological recordings were obtained 6-10 h following perfusion with sACSF. Control slices were treated similarly, using sACSF without albumin. For extracellular recordings, glass microelectrodes (˜3 MΩ, 154 mM NaCl) were positioned in layer 4 of the neocortex. Slices were stimulated with brief (100 μs) pulses, by using bipolar stimulation electrodes placed at the border between white and gray matter in the same conical column. Trains of 50 stimuli were applied at 2, 5, 10, 20, 50 and 100 Hz, at 2.5× threshold stimulation intensity. […] Extracellular potassium concentrations ([K+]o) were measured with ion-sensitive microelectrodes (ISMEs; Lux and Neher, 1973: Jauch et al., 2002).
# The simulation data presented above predicted maximal EPSP facilitation at 20 Hz when [K^+]o clearance is reduced and decreased facilitation (at 50-100 Hz) when the only change induced is glutamate accumulation in the synaptic cleft. Field potentials in response to stimulation at various frequencies in brain slices during “epileptogenesis” (exposure to albumin in sACSF) compared to controls (sACSF alone) were therefore measured.
# [3] = 100 Hz stimulation, treated (n=4)
substance,measurement,setting,value
"albumin: bovine serum albumin, used to induce epileptogenesis",Smad2 phosphorylation levels in cortical lysates,[1],increase in Smad2 phosphorylation
same,"stimulation-induced long-lasting epileptiform discharges, slices showing them",[2]; 5 Hz stimulation,2 of 4
same,"stimulation-induced long-lasting epileptiform discharges, slices showing them",[2]; 10-Hz stimulation,4 of 4
same,"field potential duration (at ⅓ maximal amplitude), 1st stimulus",[2]; 10 Hz,6.5 ± 0.7 ms
same,"field potential duration (at ⅓ maximal amplitude), 5th stimulus",[2]; 10 Hz,13.1 ± 2.6 ms
same,"stimulation-induced long-lasting epileptiform discharges, slices showing them",[2]; 20 Hz stimulation,3 of 4
same,"field potential duration (at ⅓ maximal amplitude), 1st stimulus",[2]; 20 Hz,6.6 ± 0.8 ms
same,"field potential duration (at ⅓ maximal amplitude), 5th stimulus",[2]; 20 Hz,12.9 ± 2.9 ms
same,"field potential amplitude, 1st stimulus",[2]; [3],1.44±0.36 mV
same,"field potential amplitude, 5th stimulus",[2]; [3],0.47±0.09 mV
